According to US9085608B2, “Treatment of biofilms” (LYTIX BIOPHARMA AS, priority 2008, dated 2015):
Converted amounts (≈) assume the structure as drawn. “Also recorded” adds a separate entry of the source. Like-named read-outs stand apart in the source and are kept apart here.

Legend:
[1] = tested on: S. haemolyticus TUH 51-07 biofilm; test: Biofilm imaging, LIVE/DEAD staining and confocal laser scanning microscopy; assay type: cell-based, Staphylococcus haemolyticus; conditions: 24 h treatment
Protocol: One ml aliquots of MHIIB-diluted overnight culture was used to grow S. haemolyticus TUH 51-07 biofilm on plastic coverslides (Thermanox, cellculture treated on one side, NUNC, Roskilde, Denmark) in 24-well dishes (Falcon 3047, Becton Dickinson, NJ, USA) for 24 h. The coverslides were then washed carefully with PBS, moved to a new plate and treated for 24 h with tetracycline 50 mg/L and 500 mg/L, vancomycin 50 mg/L and 500 mg/L, or Compound A 50 mg/L and 500 mg/L. The coverslides were washed again with […] and stained with a LIVE/DEAD kit (Invitrogen Molecular Probes, Eugene, Oreg., USA) following the manufacturer's instructions. This stain contains SYTO 9 (green fluorescent) and propidium iodide (PI; red fluorescent), both binding to DNA. When used alone, the SYTO 9 generally stains all bacteria in a population; both those with intact and those with damaged membranes. In contrast, PI penetrates only bacteria with damaged membranes, causing a reduction in the SYTO 9 stain green fluorescence when both dyes are present. We examined treated and untreated biofilms with a Leica TCS SP5 (Leica Microsystems CMS Gmbh, Mannheim, Germany) confocal laser scanning microscope (CLSM). Images were obtained using a 63×1.2 NA HCX PL APO water immersion lens. For detection of SYTO9 (green channel), we used the 488 nm line of the argon laser and a detection bandwidth of 495-515 nm. For PI detection (red channel), we used the 561 nm line and a detection bandwidth of 615-660 nm. The two fluorescent-signals were collected sequentially at 400 Hz. Image analyses and export was performed in Leica LAS AF version 1.8.2.

[2] = tested on: 24 h old biofilm of 6 different staphylococcal strains; test: Biofilm metabolic activity, Alamar blue reduction; assay type: cell-based, S. epidermidis, S. haemolyticus, S. aureus; conditions: 50 mg/L, 24 h treatment; all biofilms except S. aureus PIA 9
[3] = tested on: Staphylococcus epidermidis TUH 08-16; test: microbe, parasite or virus in culture
Protocol: (§1) Bacteria were grown overnight at 37° C. in cation adjusted Mueller-Hinton II Broth (MHIIB).
(§2) We determined the MICs of oxacillin, gentamicin, tetracycline, vancomycin and linezolid using E-test (AB Biodisk, Solna, Sweden) and MICs of rifampicin using broth microdilution assay. Breakpoints were interpreted according to EUCAST criteria. […] All 3 SAMPs are tripeptides with two arginine residues providing their cationic moieties (FIG. 1). The lipophilic bulk is provided by a modified tryptophane derivate. […] The molecular weights of the SAMPs are in the range of 700-800 Dalton.

[4] = tested on: Staphylococcus aureus PIA 9; test: microbe, parasite or virus in culture
Protocol: as §1, §2

[5] = tested on: Staphylococcus epidermidis RP62A ATCC 35984; test: microbe, parasite or virus in culture
Protocol: as §1, §2

[6] = tested on: Staphylococcus haemolyticus TUH 51-07; test: microbe, parasite or virus in culture
Protocol: as §1, §2

[7] = tested on: Staphylococcus haemolyticus TUH 51-03; test: microbe, parasite or virus in culture
Protocol: as §1, §2

[8] = tested on: Staphylococcus aureus PIA90; test: microbe, parasite or virus in culture
Protocol: as §1, §2

[9] = tested on: six staphylococcal strains (2 S. epidermidis, 2 S. haemolyticus and 2 S. aureus); test: Susceptibility testing under planktonic growth condition, EUCAST breakpoints; assay type: cell-based; conditions: all 6 strains; EUCAST criteria
Protocol: The six staphylococcal strains (2 S. epidermidis, 2 S. haemolyticus and 2 S. aureus) used in this study were selected based on their previously known biofilm forming capacity (Table 1).
as §1
We determined the MICs of oxacillin, gentamicin, tetracycline, vancomycin and linezolid using E-test (AB Biodisk, Solna, Sweden) and MICs of rifampicin using broth microdilution assay. Breakpoints were interpreted according to EUCAST criteria. We selected 3 different SAMPs (Compounds A, B and C; Lytix Biopharma, Tromsø, Norway—see FIG. 1) based on previously known antimicrobial activities, and determined their exact MICs with broth microdilution assay. All 3 SAMPs are tripeptides with two arginine residues providing their cationic moieties (FIG. 1). The lipophilic bulk is provided by a modified tryptophane derivate. The difference between the compounds is the size of the C-terminal modification; Compound A has the smallest and Compound B has the largest C-terminal modification (FIG. 1). The molecular weights of the SAMPs are in the range of 700-800 Dalton.

| MIC ([3]; TUH 08-16) [µg/mL] | MIC ([4]; PIA 9) [µg/mL] | MIC ([5]; ATCC 35984) [µg/mL] | MIC ([8]; PIA90) [µg/mL] | Compound | suppression of metabolic activity (AB reduction) [2] | MIC [6] [µg/mL] | MIC [7] [µg/mL] | other results |
| --- | --- | --- | --- | --- | --- | --- | --- | --- |
| 4 (≈ 5.51 µM) | 8 (≈ 11 µM) | 8 (≈ 11 µM) | 8 (≈ 11 µM) | CC(C)NC(=O)[C@H](CCCNC(=N)N)NC(=O)[C@H](Cc1c(C(C)(C)C)[nH]c2c(C(C)(C)C)cc(C(C)(C)C)cc12)NC(=O)[C@@H](N)CCCNC(=N)N [Compound A] | strong or complete suppression | 8 (≈ 11 µM) | 8 (≈ 11 µM) | LIVE/DEAD staining of biofilm cells (CLSM) ([1]; 50 mg/L): almost all cells are stained red; LIVE/DEAD staining of biofilm cells (CLSM) ([1]; 500 mg/L): almost all cells are stained red; also recorded: membrane damage of all cells |
| – | – | – | – | CC(C)(C)c1cc(C(C)(C)C)c2[nH]c(C(C)(C)C)c(C[C@H](NC(=O)[C@@H](N)CCCNC(=N)N)C(=O)N[C@@H](CCCNC(=N)N)C(=O)NCCc3ccccc3)c2c1 [Compound B] | strong or complete suppression | – | – | MIC ([3]; planktonic, SE TUH 08-16): 2 µg/mL (≈ 2.54 µM); MIC ([4]; planktonic, SA PIA 9): 2 µg/mL (≈ 2.54 µM); MIC ([5]; planktonic, SE RP62A ATCC 35984): 4 µg/mL (≈ 5.08 µM); MIC ([6]; planktonic, SH TUH 51-07): 4 µg/mL (≈ 5.08 µM); MIC ([7]; planktonic, SH TUH 51-03): 4 µg/mL (≈ 5.08 µM); MIC ([8]; planktonic, SA PIA90): 2 µg/mL (≈ 2.54 µM) |
| 2 (≈ 2.6 µM) | 4 (≈ 5.21 µM) | 4 (≈ 5.21 µM) | 2 (≈ 2.6 µM) | CCCCCCNC(=O)[C@H](CCCNC(=N)N)NC(=O)[C@H](Cc1c(C(C)(C)C)[nH]c2c(C(C)(C)C)cc(C(C)(C)C)cc12)NC(=O)[C@@H](N)CCCNC(=N)N [Compound C] | strong or complete suppression | 4 (≈ 5.21 µM) | 4 (≈ 5.21 µM) | – |
| – | – | – | – | CC(=O)NC[C@H]1CN(c2ccc(N3CCOCC3)c(F)c2)C(=O)O1 [LZD, linezolid] | – | – | – | susceptibility under planktonic growth [9]: susceptible; also recorded: sensitive; MIC ([3]; Staphylococcus epidermidis, TUH0816): 2 µg/mL (≈ 5.93 µM); MIC ([4]; Staphylococcus aureus, PIA9): 2 µg/mL (≈ 5.93 µM); MIC ([5]; Staphylococcus epidermidis, ATCC35984): 1 µg/mL (≈ 2.96 µM); MIC ([6]; Staphylococcus haemolyticus, TUH5107): 0.5 µg/mL (≈ 1.48 µM); MIC ([7]; Staphylococcus haemolyticus, TUH5103): 0.5 µg/mL (≈ 1.48 µM); MIC ([8]; Staphylococcus aureus, PIA90): 1 µg/mL (≈ 2.96 µM) |
